According to publication PMC7802075 (ACS Infectious Diseases, 2020):
Read-outs that look alike come from different tables or passages of the source. Where a SMILES comes first, the peptide text is derived from it.

Target: T1, LmjIPCS (inositol phosphorylceramide synthase from L. major) (Leishmania major, UniProt E9AFX2)
T1 sequence (E9AFX2 1-338): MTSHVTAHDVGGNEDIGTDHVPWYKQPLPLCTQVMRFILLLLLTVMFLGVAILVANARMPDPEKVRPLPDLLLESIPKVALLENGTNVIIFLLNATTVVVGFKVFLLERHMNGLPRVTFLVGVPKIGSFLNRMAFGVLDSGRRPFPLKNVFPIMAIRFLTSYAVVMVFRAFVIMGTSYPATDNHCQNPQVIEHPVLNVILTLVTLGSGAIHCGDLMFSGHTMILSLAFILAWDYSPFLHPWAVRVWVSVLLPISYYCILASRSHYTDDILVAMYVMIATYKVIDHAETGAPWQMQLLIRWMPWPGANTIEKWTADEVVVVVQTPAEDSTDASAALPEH
Test: biochemical
Type: biochemical
Design: inhibition: dose or concentration left out as unconfirmed
Settings: for inhibition at 20000 µM: read-out: 20mM inhibition LmjIPCS; for inhibition: read-out: inhibition LmjIPCS

[1] = NINDS set screen, single concentration printed as 20mM
[2] = screening of NINDS set, sheet Screen 1

## C[C@@H](N)[C@@H](O)c1ccccc1 [1S,2R-PHENYLPROPANOLAMINE]
  20mM inhibition LmjIPCS: 19%

## O=C1c2ccccc2C(=O)c2ccccc21 [ANTHRAQUINONE]
  inhibition at 20000 µM: 10%

## CC(=O)OC/C=C(C)/C=C/C=C(C)/C=C/C1=C(C)CCCC1(C)C [RETINYL ACETATE]
  inhibition at 20000 µM: 9%

## Oc1c(Cl)cc(Cl)cc1Sc1cc(Cl)cc(Cl)c1O [BITHIONOL]
  20mM inhibition LmjIPCS: 41%

## CN(C)c1nc(N(C)C)nc(N(C)C)n1 [ALTRETAMINE]
  inhibition at 20000 µM: 4%

## C/C=C(/C(=C/C)c1ccc(O)cc1)c1ccc(O)cc1 [DIENESTROL]
  inhibition at 20000 µM: -4%

## CCN(CC)C(=O)c1cccc(C)c1 [DIETHYLTOLUAMIDE]
  inhibition at 20000 µM: 17%

## CN(Cc1cc(Br)cc(Br)c1N)C1CCCCC1 [BROMHEXINE]
[1]
  20mM inhibition LmjIPCS: 53%

## CC(C)[N+](C)(CCC(C(N)=O)(c1ccccc1)c1ccccc1)C(C)C [ISOPROPAMIDE]
  inhibition: 11%

## Oc1c(Cl)cc(Cl)c2cccnc12 [CHLOROXINE]
  20mM inhibition LmjIPCS: 37%

## CC(=O)OCC(=O)[C@@]1(O)CC[C@H]2[C@@H]3CCC4=CC(=O)CC[C@]4(C)[C@H]3C(=O)C[C@@]21C [CORTISONE ACETATE]
  20mM inhibition LmjIPCS: 62%

## N[C@@H](CCC(=O)N[C@@H](CSC(CC(=O)O)C(=O)O)C(=O)NCC(=O)O)C(=O)O (stereo partly drawn) [S-(1,2-DICARBOXYETHYL)GLUTATHIONE]
NINDS set screen
  inhibition: 14%

## CC1=C(/C=C/C(C)=C/C=C/C(C)=C/C=C/C=C(C)/C=C/C=C(C)/C=C/C(=O)[C@]2(C)C[C@@H](O)CC2(C)C)C(C)(C)C[C@H](O)C1 [CAPSANTHIN]
NINDS set screen
  inhibition: 33%

## CCCCNC(=O)NS(=O)(=O)c1ccc(C)cc1 [TOLBUTAMIDE]
  inhibition: 30%

## O=[N+]([O-])c1cccc2cn[nH]c12 [7-NITROINDAZOLE]
NINDS set screen
  inhibition: 24%

## O=C(CCCCC(=O)Nc1c(I)cc(I)c(C(=O)O)c1I)Nc1c(I)cc(I)c(C(=O)O)c1I [IODIPAMIDE]
  inhibition at 20000 µM: 7%

## N=C(N)N [GUANIDINE]
  20mM inhibition LmjIPCS: 20%

## C[C@@H]1C[C@H]2[C@@H]3C[C@H](F)C4=CC(=O)C=C[C@]4(C)[C@@]3(F)[C@@H](O)C[C@]2(C)[C@@]1(O)C(=O)COC(=O)C(C)(C)C [FLUMETHAZONE PIVALATE]
  20mM inhibition LmjIPCS: 14%

## c1ccc2c(CC3=NCCN3)cccc2c1 [NAPHAZOLINE]
  inhibition at 20000 µM: 28%

## Cc1c(Cl)cccc1Nc1ccccc1C(=O)O [TOLFENAMIC ACID]
[2]
  inhibition: 4.68%

## CCCCCCNC(=O)n1cc(F)c(=O)[nH]c1=O [CARMOFUR]
  inhibition at 20000 µM: 14%

## CC(=O)Nc1ccccc1 [ACETANILIDE]
  inhibition at 20000 µM: 3.75%

## C[C@H]1O[C@@H](n2cc(F)c(=O)[nH]c2=O)[C@H](O)[C@@H]1O [5-FLUORO-5'-DEOXYURIDINE]
Single concentration 20mM as printed, screening of NINDS set, sheet Screen 1
  20mM inhibition LmjIPCS: 3.33%

## CC(C)c1c(C(=O)Nc2ccccc2)c(-c2ccccc2)c(-c2ccc(F)cc2)n1CC[C@@H](O)C[C@@H](O)CC(=O)O [ATORVASTATIN]
  inhibition at 20000 µM: 9.48%

## CC(=O)OCC(=O)[C@@]12OC3(CCCC3)O[C@@H]1C[C@H]1[C@@H]3CCC4=CC(=O)C=C[C@]4(C)[C@@]3(F)[C@@H](O)C[C@@]12C [AMCINONIDE]
  inhibition at 20000 µM: 11%

## CO[C@H]1C[C@H](O[C@H]2[C@H](C)[C@@H](O[C@@H]3O[C@H](C)C[C@H](N(C)C)[C@H]3OC(C)=O)[C@@H](C)C[C@@]3(CO3)C(=O)[C@H](C)[C@@H](OC(C)=O)[C@@H](C)[C@@H](C)OC(=O)[C@@H]2C)O[C@@H](C)[C@@H]1OC(C)=O [TROLEANDOMYCIN]
  inhibition: 18%

## CC(=O)Oc1ccccc1C(=O)O [ASPIRIN]
  inhibition at 20000 µM: 23%

## CCCNC(C)C(=O)Nc1ccccc1C (stereo not drawn) [PRILOCAINE]
  20mM inhibition LmjIPCS: 34%

## C[C@@H](CO)NC(=O)[C@@H]1C=C2c3cccc4[nH]cc(c34)C[C@H]2N(C)C1 [ERGONOVINE]
  inhibition at 20000 µM: 6.33%

## CC(C[N+](C)(C)C)OC(N)=O (stereo not drawn) [BETHANECHOL]
  20mM inhibition LmjIPCS: 53%

## CC[C@@H](CO)NCCN[C@@H](CC)CO [ETHAMBUTOL]
  inhibition: -1.19%

## Nc1ccc(S(=O)(=O)Nc2nccs2)cc1 [SULFATHIAZOLE]
[1]
  20mM inhibition LmjIPCS: 35%

## CCCCC1C(=O)N(c2ccccc2)N(c2ccc(O)cc2)C1=O (stereo not drawn) [OXYPHENBUTAZONE]
  20mM inhibition LmjIPCS: 45%

## CCCCCCCCCCC[C@@H](C[C@@H]1OC(=O)[C@H]1CCCCCC)OC(=O)[C@H](CC(C)C)NC=O [ORLISTAT]
  20mM inhibition LmjIPCS: 66%

## CN[C@@H]1[C@H](O[C@H]2[C@H](O[C@H]3[C@H](O)[C@@H](O)[C@H](NC(=N)N)[C@@H](O)[C@@H]3NC(=N)N)O[C@@H](C)[C@]2(O)CO)O[C@@H](CO)[C@H](O)[C@H]1O [DIHYDROSTREPTOMYCIN]
  inhibition at 20000 µM: 12%

## CN[C@H](CC(C)C)C(=O)N[C@H]1C(=O)N[C@@H](CC(N)=O)C(=O)N[C@H]2C(=O)N[C@H]3C(=O)N[C@H](C(=O)N[C@H](C(=O)O)c4cc(O)cc(O)c4-c4cc3ccc4O)[C@H](O)c3ccc(c(Cl)c3)Oc3cc2cc(c3O[C@@H]2O[C@H](CO)[C@@H](O)[C@H](O)[C@H]2O[C@H]2C[C@](C)(N)[C@H](O)[C@H](C)O2)Oc2ccc(cc2Cl)[C@H]1O [VANCOMYCIN]
  inhibition at 20000 µM: 31%

## COc1cc2c(cc1OC)-c1cc3ccc(OC)c(OC)c3c[n+]1CC2 [PALMATINE]
  20mM inhibition LmjIPCS: 8%

## CC(=O)O.CNC(=N)NCCC[C@H](N)C(=O)O [Ng-METHYL-L-ARGININE ACETATE]
  20mM inhibition LmjIPCS: 0.168%

## O=C(O)c1cc2ccccc2[nH]1 [INDOLE-2-CARBOXYLIC ACID]
[2]
  inhibition: 8%

## C=N[C@@H](C(=O)N[C@@H]1C(=O)N2[C@@H]1SC(C)(C)[C@@H]2C(=O)O)c1ccccc1 [METAMPICILLIN]
[2]
  inhibition: 10%

## O=P1(N(CCCl)CCCl)NCCCO1 (stereo not drawn) [CYCLOPHOSPHAMIDE]
  inhibition at 20000 µM: -0.87%

## CC1(C)[C@@H](O)CC[C@]2(C)[C@H]3C(=O)C=C4[C@H]5C[C@@](C)(C(=O)O)CC[C@]5(C)CC[C@@]4(C)[C@]3(C)CC[C@@H]12
  inhibition at 20000 µM: 7%

## OCC(O)CN1CCN(c2ccccc2)CC1 (stereo not drawn) [DROPROPIZINE]
  inhibition at 20000 µM: 18%

## COc1ccc(C(C)=O)c(O)c1 [PAEONOL]
  inhibition at 20000 µM: 9%

## O=C(O)c1cccnc1C(=O)O [QUINOLINIC ACID]
  inhibition at 20000 µM: 5.51%

## NNc1nncc2ccccc12 [HYDRALAZINE]
  inhibition at 20000 µM: 15%

## Nc1ccc(S(=O)(=O)Nc2ccc(Cl)nn2)cc1 [SULFACHLORPYRIDAZINE]
NINDS set screen
  inhibition: 23%

## Nc1c2c(nc3ccccc13)CCCC2O.O=C(O)/C=C\C(=O)O (stereo not drawn) [HYDROXYTACRINE MALEATE]
  20mM inhibition LmjIPCS: 11%

## CO[C@@H]1[C@@H](OC(N)=O)[C@@H](O)[C@H](Oc2ccc3c(O)c(NC(=O)c4ccc(O)c(CC=C(C)C)c4)c(=O)oc3c2C)OC1(C)C [NOVOBIOCIN]
  inhibition at 20000 µM: 16%

## CN1[C@@H]2C[C@@H](OC(=O)[C@H](CO)c3ccccc3)C[C@H]1[C@@H]1O[C@@H]12 [SCOPOLAMINE]
  inhibition at 20000 µM: -2.65%

## CO/N=C(\C(=O)N[C@@H]1C(=O)N2C(C(=O)O)=C(COC(N)=O)CS[C@H]12)c1ccco1 [CEFUROXIME]
NINDS set screen
  inhibition: 16%

## O=C(O)c1cc(O)c2ccc(Cl)cc2n1 [7-CHLOROKYNURENIC ACID]
[2]
  inhibition: 9%

## CRESOL
  20mM inhibition LmjIPCS: 53%

## CS(=O)(=O)Nc1ccc([N+](=O)[O-])cc1Oc1ccccc1 [NIMESULIDE]
  inhibition at 20000 µM: 11%

## O=C(O)c1cc(-c2ccc(F)cc2F)ccc1O [DIFLUNISAL]
  inhibition at 20000 µM: -4.4%

## Cc1cc2nc3c(=O)[nH]c(=O)nc-3n(C[C@H](O)[C@H](O)[C@H](O)CO)c2cc1C [RIBOFLAVIN]
  inhibition: 2.26%

## C[C@H]1C[C@@H]2[C@H]([C@@H](O)C[C@@]3(C)[C@H]2CC[C@]3(O)C(=O)CO)[C@@]2(C)C=CC(=O)C=C12 [METHYLPREDNISOLONE]
NINDS set screen
  inhibition: 16%

## COc1cc(C2Oc3cc([C@H]4Oc5cc(O)cc(O)c5C(=O)[C@@H]4O)ccc3OC2CO)ccc1O (stereo partly drawn) [SILIBININ]
  inhibition at 20000 µM: 2.14%

## O=NN(CCCl)C(=O)NCCCl [CARMUSTINE]
  inhibition at 20000 µM: 10%

## NCCCC[C@H](N)C(=O)N[C@@H](Cc1ccccc1)C(=O)N[C@@H](Cc1ccc(O)cc1)C(=O)O [LYSYLPHENYLALANYLTYROSINE] (H-Lys-Phe-Tyr-OH)
  inhibition at 20000 µM: 4.61%

## CNC1(C)C2CCC(C2)C1(C)C (stereo not drawn) [MECAMYLAMINE]
NINDS set screen
  inhibition: 17%

## O=C(Cc1cccs1)N[C@@H]1C(=O)N2C(C(=O)[O-])=C(C[n+]3ccccc3)CS[C@H]12 [CEPHALORIDINE]
  inhibition at 20000 µM: 22%

## CC(N/C(=N\C#N)Nc1ccncc1)C(C)(C)C (stereo not drawn)
  inhibition at 20000 µM: 12%

## O=C(O)c1cc(/N=N/c2ccc(S(=O)(=O)Nc3ccccn3)cc2)ccc1O [SULFASALAZINE]
  inhibition: 1.8%

## Nc1nc2nc[nH]c2c(=S)[nH]1 [THIOGUANINE]
  inhibition: 6%

## COC1=CC(=O)C[C@@H](C)[C@]12Oc1c(Cl)c(OC)cc(OC)c1C2=O [GRISEOFULVIN]
  inhibition: 28%

## OCc1ccccc1O[C@@H]1O[C@H](CO)[C@@H](O)[C@H](O)[C@H]1O [SALICIN]
  inhibition at 20000 µM: 14%

## CC(C)[C@H]1CC[C@H](C(=O)N[C@H](Cc2ccccc2)C(=O)O)CC1 [NATEGLINIDE]
[2]
  inhibition: 7%

## CC(=O)NO [ACETOHYDROXAMIC ACID]
[1]
  20mM inhibition LmjIPCS: 34%

## O=C(O)CCCc1ccccc1 [PHENYLBUTYRATE]
  inhibition at 20000 µM: 1.15%

## NC[C@H]1O[C@H](O[C@H]2[C@H](O)[C@@H](O[C@H]3O[C@H](CO)[C@@H](O)[C@H](N)[C@H]3O)[C@H](N)C[C@@H]2N)[C@H](O)[C@@H](O)[C@@H]1O [KANAMYCIN]
  20mM inhibition LmjIPCS: 26%

## NC12CC3CC(CC(C3)C1)C2 [AMANTADINE]
  inhibition at 20000 µM: 30%
